Usually inhibition stands for the drop in the measured response relative to a control, in per cent.

The subject of this assay is Aorta. The assay can be described thus: Antispasmodic activity in rat aorta assessed as inhibition of phenylephrine-induced aorta contraction at 100 uM after 60 mins relative to control. The class given is functional. As to conditions: 1 h.
As to `C=C[C@]1(C)C=C2C=C[C@H]3[C@](C)([C@@H]2CC1)[C@@H](O)CC[C@@]3(C)C(=O)O`, the inhibition at 100 µM was 12.5%.
The figure for `C=C[C@@]1(C)CC[C@@H]2C(=CC[C@H]3[C@@]2(C)CCC[C@@]3(C)C(=O)O)C1` is 50.8%; for `C=C[C@]1(C)C=C2[C@H](O)C[C@H]3[C@@](C)(CCC[C@@]3(C)C(=O)O)[C@@H]2CC1` it is 16.8%.
The figure for `C=C[C@]1(C)C=C2CC[C@@H]3[C@](C)(CO)CCC[C@@]3(C)[C@@H]2CC1` is 58.8%; for `C=C[C@]1(C)C=C2[C@@H](O)[C@H](O)[C@H]3[C@@](C)([C@H](O)CC[C@@]3(C)C(=O)O)[C@@H]2[C@@H](O)C1` it is 0%.
The figure for `C=C[C@@]1(C)CC[C@@H]2C(=C[C@H](O)[C@H]3[C@@]2(C)[C@H](O)CC[C@@]3(C)C(=O)O)[C@H]1O` is 0%; for `C=C[C@]1(C)C=C2CC[C@H]3[C@@](C)(CCC[C@@]3(C)C(=O)O)[C@@H]2CC1` it is 73.2%; for `C=C[C@]1(C)C=C2[C@@H](CC1)[C@]1(C)CCC[C@@](C)(C(=O)OC)[C@H]1C[C@@H]2O` it is 82.5%.
In the case of `C=C[C@]1(C)C=C2CC[C@H]3[C@@](C)(CCC[C@@]3(C)C(=O)OC)[C@@H]2CC1`, the inhibition at 100 µM was found to be 10.5%.
In the case of `C=C[C@]1(C)C=C2C(=O)C[C@H]3[C@@](C)(CCC[C@@]3(C)C(=O)O)[C@@H]2CC1` it was 61.5%.

The record behind these values is ChEMBL document CHEMBL2417421, “Biotransformation of ent-pimaradienoic acid by cell cultures of Aspergillus niger” (2013).
